Where “and” joins values, the source holds several entries; their conditions need not be identical. Identical values can stand only once. Marks after values point to notes of the source that are not given here.
Key:
HSA/fructose system [1] = assay: HSA glycation: protein thiol group protection; assay type: biochemical, human; details: for thiol shielding / thiol group protection: 100 µg/mL; for Thiols Group: HSA/fructose
HSA/fructose system [2] = assay: HSA glycation, intermediate stage: protein carbonyls; assay type: biochemical, human
HSA/fructose system [3] = assay: HSA glycation, early stage: fructosamine (NBT test); assay type: biochemical, human; parameters: dose or concentration left out as unconfirmed
[4] = DPPH radical scavenging activity; details: mean ± SE
[5] = superoxide radical scavenging activity; details: mean ± SE
[6] = ABTS radical scavenging activity; details: mean ± SE
α-amylase = target: T1, α-amylase (Sus scrofa, UniProt P00690); assay: α-amylase inhibition kinetics (Lineweaver-Burk, secondary plot); assay type: biochemical, porcine
T1 sequence (P00690 16-511): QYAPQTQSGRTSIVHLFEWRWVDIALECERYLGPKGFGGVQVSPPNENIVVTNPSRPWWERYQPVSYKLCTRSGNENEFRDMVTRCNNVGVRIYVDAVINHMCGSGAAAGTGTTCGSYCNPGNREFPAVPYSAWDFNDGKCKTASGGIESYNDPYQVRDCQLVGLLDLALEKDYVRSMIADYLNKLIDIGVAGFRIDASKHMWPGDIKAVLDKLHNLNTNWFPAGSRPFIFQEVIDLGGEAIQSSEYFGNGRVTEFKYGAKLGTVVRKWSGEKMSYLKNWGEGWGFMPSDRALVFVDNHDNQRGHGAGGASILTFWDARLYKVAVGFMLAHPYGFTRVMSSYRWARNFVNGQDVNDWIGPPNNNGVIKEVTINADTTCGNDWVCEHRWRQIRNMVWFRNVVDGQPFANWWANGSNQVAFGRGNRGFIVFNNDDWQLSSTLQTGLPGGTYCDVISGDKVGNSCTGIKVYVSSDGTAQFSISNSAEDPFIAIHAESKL

yeast α-glucosidase = assay type: biochemical; details: mean ± SE
aldose reductase [7] = target: T2, aldose reductase (Homo sapiens, UniProt P15121); assay: aldose reductase inhibition kinetics (Lineweaver-Burk, secondary plot); assay type: biochemical; details: for Mode of Inhibition, Aldose reductase: from double reciprocal plot
α-glucosidase = α-glucosidase inhibition kinetics (Lineweaver-Burk, secondary plot); assay type: biochemical, yeast; details: for Mode of Inhibition, α-Glucosidase: from double reciprocal plot; for Ki, α-Glucosidase: secondary plot, mean ± SE
[8] = parameters: method as in earlier work; details: ref [9] of the supplement, cited from earlier work
[9] = target: T3, type-VI B porcine pancreatic α-amylase (Sus scrofa, UniProt P00690); assay: α-amylase inhibition assay; assay type: biochemical; details: mean ± SE
T3 sequence (P00690 16-511): T1 sequence (P00690 16-511)

aldose reductase [10] = target: T2, aldose reductase; assay: aldose reductase inhibition assay; assay type: biochemical; details: mean ± SE

Compound | thiol shielding / thiol group protection (HSA/fructose system [1]) | Thiols Group (HSA/fructose system [1]; week 1) | Thiols Group (HSA/fructose system [1]; week 2) | Thiols Group (HSA/fructose system [1]; week 3) | Protein carbonyl Content (HSA/fructose system [2]; week 1) | Protein carbonyl Content (HSA/fructose system [2]; week 2) | Protein carbonyl Content (HSA/fructose system [2]; week 3) | Fructosamine (HSA/fructose system [3]; week 1) | Fructosamine (HSA/fructose system [3]; week 2) | Fructosamine (HSA/fructose system [3]; week 3) | EC50 Radical Scavenging Activities DPPH [4] | EC50 Radical Scavenging Activities Superoxide [5] | EC50 Radical Scavenging Activities ABTS [6] | Vmax, α-Amylase (α-amylase; inhibitor at IC40) | IC50 α-Glucosidase (yeast α-glucosidase) | Mode of Inhibition, Aldose reductase (aldose reductase [7]) | Vmax, Aldose reductase (aldose reductase [7]; inhibitor at IC20) | Vmax, Aldose reductase (aldose reductase [7]; inhibitor at IC40) | Vmax, Aldose reductase (aldose reductase [7]; inhibitor at IC60) | Mode of Inhibition, α-Glucosidase (α-glucosidase) | other results
N=C(N)NN [Aminoguanidine, aminoguanidine, reference compound] | 71% | 0.95 ± 1.46 ^b nmol/mg protein | 1.04 ± 1.00 ^b nmol/mg protein | 1.17 ± 0.89 ^b nmol/mg protein | 0.64 ± 0.54 ^e nmol/mg protein | 0.66 ± 1.05 ^e nmol/mg protein | 0.70 ± 1.11 ^e nmol/mg protein | 28.50 ± 1.16 ^d mmol/mg Protein | 30.00 ± 1.00 ^d mmol/mg Protein | 31.75 ± 0.97 ^d mmol/mg Protein | – | – | – | – | – | – | – | – | – | – | –
COc1ccc(O)c(C(C)(C)C)c1 [BHA, butylated hydroxyl anisole, reference compound] | – | – | – | – | – | – | – | – | – | – | 40.25 ± 0.30 ^d μg/mL | 64.75 ± 0.13 ^d μg/mL | 31.00 ± 0.55 ^d μg/mL | – | – | – | – | – | – | – | –
O=C(O)C=Cc1ccc(O)c(O)c1 [Caffeic acid, 3-(3,4-Dihydroxyphenyl)-2-propenoic acid] | 74–83% | 0.69 ± 0.55 ^a nmol/mg protein | 0.79 ± 0.05 ^a nmol/mg protein | 0.80 ± 0.88 ^a nmol/mg protein | 0.49 ± 2.17 ^b nmol/mg protein | 0.57 ± 1.25 ^b nmol/mg protein | 0.57 ± 2.22 ^b nmol/mg protein | 26.82 ± 0.14 ^a mmol/mg Protein | 27.06 ± 0.13 ^a mmol/mg Protein | 28.02 ± 1.04 ^a mmol/mg Protein | 18.50 ± 0.08 ^b μg/mL | 30.13 ± 2.05 ^b μg/mL | 12.44 ± 1.60 ^b μg/mL | 25.75 10^3(µM/min)^−1 | 8.00 ± 0.40 ^a µg/mL | Non-competitive | 13.35 10^3(µM/min)^−1 | 10.15 10^3(µM/min)^−1 | 5.05 10^3(µM/min)^−1 | Competitive | Vmax, α-Glucosidase (α-glucosidase; inhibitor at IC20): 39.98 10^3(µM/min)^−1; Vmax, α-Glucosidase (α-glucosidase; inhibitor at IC40): 40.40 10^3(µM/min)^−1; Vmax, α-Glucosidase (α-glucosidase; inhibitor at IC60): 40.37 10^3(µM/min)^−1; Ki, α-Glucosidase (α-glucosidase; listed as CA): 1.03 mg and 0.52 ± 0.02 mg
O=c1c(O)c(-c2ccc(O)c(O)c2)oc2cc(O)cc(O)c12 [Quercetin] | – | – | – | – | – | – | – | – | – | – | – | – | – | – | – | – | – | – | – | – | adverse effects on serum electrolytes, renal, haematological, and liver function blood parameters ([8]; >1000 mg/day for several months): no adverse effects; safety and tolerability in human clinical trials [8]: safe and well-tolerated
COc1cc(C(=O)O)cc(OC)c1O [Syringic acid, 4-Hydroxy-3,5-dimethoxybenzoic acid] | 74–83% | 0.64 ± 0.62 ^a nmol/mg protein | 0.76 ± 0.53 ^a nmol/mg protein | 0.78 ± 0.34 ^a nmol/mg protein | 0.49 ± 1.06 ^c nmol/mg protein | 0.54 ± 0.62 ^c nmol/mg protein | 0.54 ± 1.32 ^c nmol/mg protein | 26.30 ± 1.21 ^b mmol/mg Protein | 26.99 ± 1.90 ^b mmol/mg Protein | 26.41 ± 1.18 ^b mmol/mg Protein | 16.00 ± 0.13 ^a μg/mL | 28.00 ± 1.19 ^a μg/mL | 11.40 ± 2.04 ^a μg/mL | 51.11 10^3(µM/min)^−1 | 7.50 ± 1.05 ^a µg/mL | Non-competitive | 34.47 10^3(µM/min)^−1 | 20.05 10^3(µM/min)^−1 | 11.50 10^3(µM/min)^−1 | Competitive | Mode of Inhibition, α-Amylase (α-amylase; from double reciprocal plot): Competitive; Vmax, α-Amylase (α-amylase; inhibitor at IC20): 51.10 10^3(µM/min)^−1; Vmax, α-Amylase (α-amylase; inhibitor at IC60): 50.95 10^3(µM/min)^−1; Ki (α-amylase; secondary plot, mean ± SE): 6.31 µM; IC50 [9]: 127 µM; IC50 (aldose reductase [10]): 15.1 µM; Ki (aldose reductase [7]; secondary plot, mean ± SE): 8.28 µM; Vmax, α-Glucosidase (α-glucosidase; inhibitor at IC20): 33.55 10^3(µM/min)^−1; Vmax, α-Glucosidase (α-glucosidase; inhibitor at IC40): 33.43 10^3(µM/min)^−1; Vmax, α-Glucosidase (α-glucosidase; inhibitor at IC60): 33.79 10^3(µM/min)^−1; Ki, α-Glucosidase (α-glucosidase): 0.96 ± 0.22 mg; Ki, α-Glucosidase (α-glucosidase; listed as SA): 1.25 mg

Reference: PMC8949615, “Inhibitory Effect of Polyphenols from the Whole Green Jackfruit Flour against α-Glucosidase, α-Amylase, Aldose Reductase and Glycation at Multiple Stages and Their Interaction: Inhibition Kinetics and Molecular Simulations” (Molecules, 2022)
